From patent US4780281A, “Method for assay of peroxidase enzyme or reducing substrate activity” (Wayne State University, priority 1985, dated 1988)

T1: Horseradish peroxidase (HRP) (Armoracia rusticana, UniProt P00433)
T1 construct: purchased Sigma Chemical Corporation Type VI
T1 sequence (P00433 31-338 limits assumed): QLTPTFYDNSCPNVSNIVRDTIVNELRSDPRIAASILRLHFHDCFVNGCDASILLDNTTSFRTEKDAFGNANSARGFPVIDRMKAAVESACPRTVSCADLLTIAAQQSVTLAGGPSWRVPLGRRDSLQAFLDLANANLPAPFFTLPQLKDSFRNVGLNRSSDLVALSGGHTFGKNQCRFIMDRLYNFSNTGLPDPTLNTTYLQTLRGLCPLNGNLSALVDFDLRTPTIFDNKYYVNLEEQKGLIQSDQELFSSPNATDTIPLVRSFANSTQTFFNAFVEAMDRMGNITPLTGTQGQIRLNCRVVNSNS

T2: Prostaglandin H Synthase (Ovis aries, UniProt P05979)
T2 sequence (P05979 25-600): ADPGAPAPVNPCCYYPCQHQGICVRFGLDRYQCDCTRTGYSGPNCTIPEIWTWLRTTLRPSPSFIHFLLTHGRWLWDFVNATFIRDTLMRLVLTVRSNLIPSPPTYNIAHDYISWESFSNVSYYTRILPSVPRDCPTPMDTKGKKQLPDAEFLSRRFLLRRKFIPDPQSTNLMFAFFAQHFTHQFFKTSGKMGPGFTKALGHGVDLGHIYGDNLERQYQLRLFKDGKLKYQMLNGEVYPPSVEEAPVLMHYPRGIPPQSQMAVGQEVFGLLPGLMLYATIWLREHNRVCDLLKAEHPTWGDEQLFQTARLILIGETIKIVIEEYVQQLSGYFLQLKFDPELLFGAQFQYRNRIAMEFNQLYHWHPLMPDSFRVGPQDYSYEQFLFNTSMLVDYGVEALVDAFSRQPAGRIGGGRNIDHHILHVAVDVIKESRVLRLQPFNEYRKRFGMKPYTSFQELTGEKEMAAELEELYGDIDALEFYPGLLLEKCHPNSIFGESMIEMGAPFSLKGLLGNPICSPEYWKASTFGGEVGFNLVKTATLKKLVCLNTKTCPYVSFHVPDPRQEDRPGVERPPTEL


Tests used:
[1] = target: T1, Horseradish peroxidase (HRP); assay: Reducing substrate specificity assay (HRP-catalysed reduction of PPHP to PPA, HPLC); assay type: biochemical; settings: 60 nM HRP, 200 microM reducing substrate; for Index = concentration PPA/(concentration PPA+concentration PPHP): 100 microM PPHP, 0.1 M potassium citrate pH 5.5, 0.2 mM Tween-20, 25° C., 6 minutes, triplicate; for reducing substrate quality for HRP (FIG. 1): pH 5.5
Method: Incubations were performed in triplicate with a 25° C. shaker bath in 16×150 mm disposable glass test tubes. 60 nM HRP was incubated at 25° C. in 0.1 M potassium citrate buffer, […] containing 0.2 mM Tween 20, with 100 microM PPHP and 200 microM potential reducing substrate. The index value is defined as, Index=concentration PPA/(concentration PPA+concentration PPHP). Most reducing substrates were prepared daily as 8 mM stocks in either water, methanol, or methanol:water (1:1 v/v). DPBF was dissolved in acetone. Uric acid was dissolved in DMSO. Epinephrine required titration with dilute hydrochloric acid prior to dissolution in methanol. Indoleacetic acid, tryptophan, cysteine, and methionine were titrated with dilute potassium hydroxide prior to dissolution in methanol:water (1:1 v/v).
For the data in Table 1 hereinafter, reducing substrates (50 microliters of 8 mM stocks--see Table 1 for preparation) were transferred into 1.9 ml of 0.1 M potassium citrate buffer, pH 5.5, containing 0.2 mM Tween-20 and allowed to thermally equilibrate for 10 minutes. HRP (24 microl of a 5 microM stock) was added to each trial and preincubated for three minutes prior to the addition of PPHP (25 microl of 8 mM stock in methanol). Incubations were stopped at 6 minutes by pouring mixtures onto Baker SPE System columns (3 ml octyldecylsilyl, from J. T. Baker & Co.). The columns were prepared prior to use by passing 3×3 ml aliquots of water through the columns with the Baker SPE vacuum system. At the stop time, an individual trial was poured onto the column and aspirated to near dryness. Each individual trial was set aside until the reminder of the trials were treated in the same manner. After all incubation trials were partitioned onto the SPE columns, each individual incubation tube was washed with 2 ml of 0.2 mM Tween 20 in distilled water and poured onto the corresponding SPE column. This Tween 20/water wash was aspirated to near dryness with vacuum. Analytes were eluted into 12×76 mm disposable glass test tubes with 2×1 ml aliquots of methanol (HPLC grade, Fisher Scientific Co.). The sample collection rack for the Baker 10 SPE System was modified to accommodate these 12 mm diameter tubes. The SPE columns were aspirated dry at this point and discarded. An internal chromatographic standard of p-nitrobenzyl alcohol (25 microl of 8 mM stock solution in methanol) was added to each methanol eluent, mixed by vortexing, and then clarified by filtration through a 0.45 micron nylon Swinney type filter (Rainin Instrument Corp.). The filtered eluents were used directly for chromatographic analysis.
The Initial incubation conditions were 0.1 M potassium citrate buffer, pH 5.5, with 0.2 mM Tween 20, 200 microM reducing substrate, 60 nM HRP and […] PPHP (structure 1).
Quantitation was determined by adding an internal standard (p-nitrobenzyl alcohol: annotated as I.S. on chromatograms) and ratioing peak areas. Chromatograms are 40 microliters injections onto a 5 micron Zorbax octylsilyl reverse-phase column (DuPont Instrument Corp.) with an isocratic elution mobile of 56% v/v methanol in water at 2 ml per min. U.V. monitoring was with a fixed 254 nm detector (Varian 5000, Varian Instrument Corp.). Vertical numbers are associated with peak retention times in minutes (the integrator used was a Vista 402 System, Varian Instruments).
Analyte concentrations were calculated by an internal standard method of calculation. This required individual incubation chromatograms to be compared to a calibration chromatogram generated by chromatographing a 40 microliter sample aliquot of a solution of PPHP as described under calculations.

[2] = target: T2, Prostaglandin H Synthase; assay: Reducing substrate efficiency for PPHP reduction, conditions as for Table 1; assay type: biochemical; settings: for Index of Efficiency of Reducing Substrates: Prostaglandin H synthase, under the conditions for Table 1
[3] = substrate: Oc1ccccc1; assay: Steady-state kinetic assay (PPA production, SPE/HPLC); assay type: biochemical, horseradish; settings: other: 2.5 nM HRP, 100 microM PPHP, pH 5.5, 4 minutes
Method: The incubations were terminated at 2, 4, and 8 minutes by pouring the incubations onto SPE columns as described in Methods. […] The data points are the average of triplicates. […] All buffers contained 0.2 mM Tween-20. Incubations were stopped at 4 minutes by pouring onto SPE columns as described in Methods. Each data point is the average of triplicates. […] Incubations were stopped at 4 minutes by pouring on SPE columns as described in Methods. PPA concentrations were converted into velocities by dividing by the incubation time and assuming linear steady-state velocities over the first 8 minutes (see FIG. 3). Five replicates of each phenol concentration were assayed. Km and Vmax were determined by linear regression analysis upon the non-averaged data points.
We designed the assays with 4 minute termination times converting either the concentration of PPHP or PPA into velocities.

[4] = substrate: OOCCC/C=C/c1ccccc1; assay: Spectrophotometric assay of Chance & Maehly for guaiacol oxidation; assay type: biochemical, horseradish; settings: other: estimated
Description: Apparent Km values for reducing substrates and enzymatic turnover numbers are readily determined by the steady-state kinetic assay.

| Molecule | Index = concentration PPA/(concentration PPA+concentration PPHP) [1] | Index of Efficiency of Reducing Substrates [2] | other results |
| --- | --- | --- | --- |
| CSc1ccc(/C=C2/C(C)=C(CC(=O)O)c3cc(F)ccc32)cc1 [Sulindac Sulfide] |  | .96 |  |
| O=C(O)c1ccccc1Nc1cccc(C(F)(F)F)c1 [Flufenamate] |  | .68 |  |
| CC(=O)Oc1ccccc1C(=O)O [Aspirin] |  | .04 |  |
| O=C(O)CCCCC1CCSS1 (racemic) [Lipoic Acid, d,1-thiotic acid] | 0.06 ± 0.01 |  |  |
| Oc1ccc(O)cc1 [Hydroquinone, hydroquinone] | 0.97 ± 0.01 |  |  |
| Cc1c(CC(=O)O)c2cc(O)ccc2n1C(=O)c1ccc(Cl)cc1 [5-Hydroxy-indomethacin] |  | .34 |  |
| O=C(O)c1ccccc1O [Salicylic Acid] |  | .06 |  |
| CCCCC1C(=O)NN(c2ccccc2)C1=O (centres unmarked) [Monophenylbutazone] |  | .23 |  |
| COc1ccc2c(c1)c(C(C)C(=O)O)c(C)n2Cc1ccc(SC)cc1 (centres unmarked) [MK-410] |  | .26 |  |
| Cc1cc(NC(=O)C2=C(O)c3ccccc3S(=O)(=O)N2C)no1 [Isoxicam] |  | .25 |  |
| O=C(O)Cc1ccccc1Nc1c(Cl)cccc1Cl [Diclofenac] |  | .50 |  |
| CCCCC1C(=O)N(c2ccccc2)N(c2ccc(O)cc2)C1=O (centres unmarked) [Oxyphenylbutazone] |  | .71 |  |
| [I-].[K+] [Iodide, potassium iodide] | 0.97 ± 0.02 |  |  |
| OC1C=Cc2c(cc3ccc4cccc5ccc2c3c45)C1O (centres unmarked) [7,8-dihydroxy-7,8-dihydrobenzo[a]pyrene] |  |  | reducing substrate for PPHP reduction by prostaglandin H synthase [2]: not reducing substrates |
| CCCCC1C(=O)N(c2ccccc2)N(c2ccccc2)C1=O [Phenylbutazone] |  | .23 |  |
| NC(=O)C1=CN([C@@H]2O[C@H](COP(=O)(O)OP(=O)(O)OC[C@H]3O[C@@H](n4cnc5c(N)ncnc54)[C@H](OP(=O)(O)O)[C@@H]3O)[C@@H](O)[C@H]2O)C=CC1 [NADPH, reduced nicotinamide adenine dinucleotide phosphate] | 0.06 ± 0.01 |  |  |

| Molecule | Index = concentration PPA/(concentration PPA+concentration PPHP) [1] | Index of Efficiency of Reducing Substrates [2] | other results |
| --- | --- | --- | --- |
| Cc1ccc(Cl)c(Nc2ccccc2C(=O)O)c1Cl [Meclofenamate] |  | .35 |  |
| NC(=O)C1=CN([C@@H]2O[C@H](COP(=O)(O)OP(=O)(O)OC[C@H]3O[C@@H](n4cnc5c(N)ncnc54)[C@H](O)[C@@H]3O)[C@@H](O)[C@H]2O)C=CC1 [NADH, reduced nicotinamide adenine dinucleotide] | 0.05 ± 0.00 |  |  |
| CC(C(=O)O)c1ccc(-c2ccccc2)c(F)c1 (centres unmarked) [Flurbiprofen] |  | .12 |  |
| CCN(CC)C(=S)S [Diethyldithiocarbamate, diethyldithiocarbamic acid] | 0.72 ± 0.02 |  |  |
| CSc1ccccc1 [Methylphenyl Sulfide] |  | .50 |  |
| CC(C)Cc1ccc(C(C)C(=O)O)cc1 (centres unmarked) [Ibuprofen] |  | .12 |  |
| CC(C)(C)c1cc(I)c(O)c(CN)c1 [MK-447] |  | .72 |  |
| Nc1ccccc1 [Aniline, aniline] | 0.97 ± 0.01 |  |  |
| CC1=NN(CCOc2ccc3ccccc3c2)C(=O)C1 [Nafazatrom] |  | .80 |  |
| COc1ccc(O)c(C(C)(C)C)c1 [BHA, butylated hydroxyanisole] | 0.56 ± 0.01 |  | reducing substrate quality for HRP (FIG. 1) [1]: moderate |
| N[C@@H](CCC(=O)N[C@@H](CS)C(=O)NCC(=O)O)C(=O)O [Glutathione, reduced glutathione] | 0.07 ± 0.01 |  |  |
| c1ccc2c(c1)cc1ccc3cccc4ccc2c1c34 [benzo[a]yrene] |  |  | reducing substrate for PPHP reduction by prostaglandin H synthase [2]: not reducing substrates |
| CSCC[C@H](N)C(=O)O [Methionine, d,1-methionine] | 0.05 ± 0.01 |  |  |
| N[C@@H](CS)C(=O)O [Cysteine, 1-cysteine] | 0.06 ± 0.01 |  |  |
| CNC[C@H](O)c1ccc(O)c(O)c1 [Epinephrin, d,1-epinephrine] | 0.39 ± 0.01 | .92 |  |
| HRP (Armoracia rusticana) (protein, purchased Sigma Chemical Corporation Type VI) QLTPTFYDNSCPNVSNIVRDTIVNELRSDPRIAASILRLHFHDCFVNGCDASILLDNTTSFRTEKDAFGNANSARGFPVIDRMKAAVESACPRTVSCADLLTIAAQQSVTLAGGPSWRVPLGRRDSLQAFLDLANANLPAPFFTLPQLKDSFRNVGLNRSSDLVALSGGHTFGKNQCRFIMDRLYNFSNTGLPDPTLNTTYLQTLRGLCPLNGNLSALVDFDLRTPTIFDNKYYVNLEEQKGLIQSDQELFSSPNATDTIPLVRSFANSTQTFFNAFVEAMDRMGNITPLTGTQGQIRLNCRVVNSNS |  |  | Km [3]: 252 µM; Km [4]: 18 µM |

More lines, main results first:

| Index = concentration PPA/(concentration PPA+concentration PPHP) [1] | Molecule | Index of Efficiency of Reducing Substrates [2] | other results |
| --- | --- | --- | --- |
| 0.96 ± 0.00 | O=c1[nH]c(=O)c2[nH]c(=O)[nH]c2[nH]1 [Uric Acid, uric acid] |  |  |
| 0.06 ± 0.01 | c1ccc(-c2oc(-c3ccccc3)c3ccccc23)cc1 [DPBF, 1,3-diphenylisobenzofuran] |  | reducing substrate for PPHP reduction by prostaglandin H synthase [2]: not reducing substrates |
| 0.97 ± 0.01 | COc1ccccc1O [Guaniacol, guaiacol] |  |  |
| 0.50 ± 0.00 | O=C1O[C@H]([C@@H](O)CO)C(O)=C1O [Ascorbic Acid, 1-ascorbic acid] |  |  |
| 0.13 ± 0.04 | N[C@@H](Cc1c[nH]c2ccccc12)C(=O)O [Tryptophan, 1-tryptophan] |  | reducing substrate quality for HRP (FIG. 1) [1]: poor |
| 0.19 ± 0.03 | Cc1cc(C(C)(C)C)c(O)c(C(C)(C)C)c1 [BHT, butylated hydroxytoluene] |  |  |
| 0.14 ± 0.01 | O=C(O)Cc1c[nH]c2ccccc12 [Indoleacetic Acid, indole-3-acetic acid] |  |  |
